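Each compound was tested at five concentrations against cells in 96-well plates for 48 hours. GI50 is the concentration that inhibits growth by half. TGI: concentration producing complete growth inhibition.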
Legend:
Test in all cases: NCI-60 cell line screen, 48 h
[1] = tested on: SN12C renal
[2] = tested on: COLO 205 colon
[3] = tested on: SF-539 CNS
[4] = tested on: NCI-H522 lung
[5] = tested on: HL-60(TB) leukemia
[6] = tested on: SNB-75 CNS
[7] = tested on: HOP-92 NSCLC
[8] = tested on: UACC-62 melanoma
[9] = tested on: EKVX NSCLC
[10] = tested on: SK-MEL-2 melanoma

SMILES	TGI [1] [µM]	TGI [2] [µM]	TGI [3] [µM]	GI50 [4] [µM]	TGI [4] [µM]	TGI [5] [µM]	GI50 [6] [µM]	TGI [6] [µM]	TGI [7] [µM]	TGI [8] [µM]	TGI [9] [µM]	TGI [10] [µM]	GI50 [1] [nM]	GI50 [2] [nM]	GI50 [3] [nM]	GI50 [5] [nM]	GI50 [7] [nM]	GI50 [8] [nM]	GI50 [9] [nM]	GI50 [10] [nM]
C=C1CCC2[C@@H](CCC3[C@]2(C)CCC[C@]3(C)C(=O)OC)[C@@H]1CC=O (stereo not given in full)	> 100	> 100	37.6	> 100	> 100	55.9	37.1	> 100	48.9	64.5	77.6	91.7	–	–	–	–	–	–	–	–
Nc1ccccc1SCc1csc(-c2ccc(Cl)cc2)n1	34.2	34.6	53.2	–	31.1	23.9	–	> 100	60.1	> 64	86.9	35.2	–	–	–	–	–	–	–	–
Cn1cncc1CC1COC(=O)C1C(O)c1ccccc1 (stereo not given)	> 100	> 100	> 100	–	> 100	> 100	–	> 100	> 100	> 100	> 100	> 100	–	–	–	–	–	–	–	–
CC(C)c1c2[nH]c3ccccc3c2c(C(C)C)c2[nH]c3ccccc3c12	> 100	> 100	> 100	–	> 100	> 62.5	–	> 100	> 100	> 100	> 100	> 100	–	–	–	–	–	–	–	–
CCCCCCCCCCCCCP(=O)(O)NCC(N)=O	> 100	> 100	> 100	–	86.2	67.3	–	> 100	> 100	> 100	> 100	> 100	–	–	–	–	–	–	–	–
O=C1NC(=O)C(c2cccc(Cl)c2)=C1Nc1ccc(O)c(Cl)c1	> 25	> 25	> 21.9	6.98	> 21	> 25	6.96	> 20.4	> 25	> 25	> 25	22.5	9420	> 20100	7710	8750	5760	7630	10600	7910
CC1CN1c1c(C(=O)/C=C/c2ccccc2)c(-c2ccccc2)nn(C)c1=O (stereo not given)	32.6	29.7	30.7	–	26.2	49.7	–	40	46.7	36.6	48.2	29.9	–	–	–	–	–	–	–	–
COc1ccc2c(c1)OC1=C(C(=O)OC1)C2c1cc(OC)c2c(c1)OCO2 (stereo not given)	> 100	0.0908	> 100	< 0.0111	0.0472	–	0.0297	> 100	> 100	> 100	> 100	> 100	102	31	33.3	34.2	28600	47.8	–	40.5
Fc1cccc(C2SCc3nc4ccccc4n32)c1F (stereo not given)	> 100	> 100	> 100	–	> 100	46.9	–	> 100	85	> 100	> 100	76.4	–	–	–	–	–	–	–	–
CCOC1=C2N=C(Cc3ccccc3F)N=C2C(=O)c2ccccc21	> 100	> 100	> 100	–	> 100	> 100	–	> 100	> 100	> 100	> 100	> 100	–	–	–	–	–	–	–	–
CC(=O)c1c(C(F)(F)F)n([O-])c2ccc(C)cc2[n+]1=O	4.72	> 43.8	5.1	3	> 24.2	10.5	3.28	18.1	4.81	3.34	4.59	> 66.5	1500	3350	1780	1920	1110	1310	1190	15500
N#CN1CC[C@H](C(=O)Nc2ncc(-c3ccncc3)s2)C1	38.4	0.045	0.164	< 0.0149	0.0499	< 0.028	< 0.0148	0.53	0.761	1.32	4.4	0.0976	< 27.7	< 14.1	< 16	< 17.1	80.2	< 17.2	64.2	< 10
COc1ccc(/C=N/NC(=O)Cn2c(-c3ccc(S(C)(=O)=O)cc3)nc3cc(Cl)ccc32)cc1	> 50	2.42	3.35	0.291	1.7	7.3	1.05	> 50	> 50	> 50	> 50	> 50	2590	907	855	446	1520	709	2510	1130
